In patent publication US10646459B2, “Sphingosine pathway modulating compounds for the treatment of cancers” (Enzo Biochem, Inc., priority 2017, dated 2020):

Columns and labels:
Huh7 cells = assay: Apoptosis/necrosis assay (flow cytometry), Huh7 cells; format: cell-based, human; settings: 24 hours; SK1-I 10, 20, 40 μM; ozanimod 5, 10, 20 μM; ABC294640 10, 20, 40 μM; vs no-drug control
Procedure: (§1) Apoptosis/necrosis assays evaluating the effect of different concentrations of each of ozanimod, ABC294640 and SK1-I on the four human hepatocellular carcinoma cell lines, Hep G2, Hep 3B, Huh 7 and PLC-PRF5 were also performed.
(§2) The protocol used for the apoptosis assays was: • Plated cells in 6-well plates and incubated at 37° C. overnight. • Prepared concentrations of test compound and control compound DMSO in media. • Ozanimod: 5 μM, 10 μM, and 20 μM. • ABC294640: 10 μM, 20 μM, and 40 μM. • SK1-I: 10 μM, 20 μM, and 40 μM. • Control: 0.2% DMSO. • Aspirated the medium from the 6-well plates and added test compound concentrations in media or 0.2% DMSO control in media. Incubated at 37° C. for 24 hours. • Collected and processed the cells following the flow cytometry protocol of the GFP Certified® Apoptosis/Necrosis detection kit from Enzo Life Sciences, Inc. (product no. ENZ-51002; Farmingdale, N.Y., USA).
(§3) FIGS. 5-16 present graphs plotting the data from these 24-hour apoptosis assays for the different concentrations of compounds and no-drug control for the various cell lines. Channel FL2 picks up the apoptosis signal and channel FL3 picks up the necrosis signal. Data points in Quadrant 3 (Q3) in the graphs corresponds to cells undergoing apoptosis (cells positive for the apoptosis detection reagent of the assay). Data points in Quadrant 2 (Q2) in the graphs corresponds to cells that are positive for the apoptosis detection reagent and positive for the necrosis detection reagent of the assay (indicative of late-stage apoptosis).

PLC-PRF5 cells = assay: Apoptosis/necrosis assay (flow cytometry), PLC-PRF5 cells; format: cell-based, human; settings: 24 hours; SK1-I 10, 20, 40 μM; ozanimod 5, 10, 20 μM; ABC294640 10, 20, 40 μM; vs no-drug control
Procedure: as §1, §2, §3

Hep 3B cells = assay: Apoptosis/necrosis assay (flow cytometry), Hep 3B cells; format: cell-based, human; settings: 24 hours; SK1-I 10, 20, 40 μM; ozanimod 10, 20, 40 μM; ABC294640 10, 20, 40 μM; vs no-drug control
Procedure: as §1
(§4) The protocol used for the apoptosis assays was: • Plated cells in 6-well plates and incubated at 37° C. overnight. • Prepared […], 20 μM, and 40 μM. • SK1-I: 10 μM, 20 μM, and 40 μM. • Control: 0.2% DMSO. • Aspirated the medium from the 6-well plates and added test compound concentrations in media or 0.2% DMSO control in media. Incubated at 37° C. for 24 hours. • Collected and processed the cells following the flow cytometry protocol of the GFP Certified® Apoptosis/Necrosis detection kit from Enzo Life Sciences, Inc. (product no. ENZ-51002; Farmingdale, N.Y., USA).
as §3

Hep G2 cells = assay: Apoptosis/necrosis assay (flow cytometry), Hep G2 cells; format: cell-based, human; settings: 24 hours; SK1-I 10, 20, 40 μM; ozanimod 10, 20, 40 μM; ABC294640 10, 20, 40 μM; vs no-drug control
Procedure: as §1, §4, §3

[1] = system: Jurkat cells (human T-cell leukemia cell line); assay: Apoptosis assay, Jurkat cells; format: cell-based; settings: SK1-I 10, 20 μM; ozanimod 5, 10 μM; vs no-drug control
Procedure: as §2
as §3, with “apoptosis). […]” for “apoptosis).”

[2] = system: primary human hepatocytes; assay: Apoptosis/necrosis assay, normal primary human hepatocytes; format: cell-based; settings: 24 hours; SK1-I 10, 20, 40 μM; ozanimod 2.5, 5, 10 μM; normal (non-cancerous) cells
Procedure: In still further experiments, the effects of SK1-I and ozanimod on normal (non-cancerous) primary human hepatocytes were investigated. Fresh human hepatocytes in a 12-well plate (HUF12) were obtained from Triangle Research Labs (Durham, N.C., USA; part of Lonza Group) and handled according to the supplier's protocol. The shipping medium was aspirated from each well and replaced with 1 ml per well of warm Hepatocyte Maintenance Medium. The plate was then placed in a 5% CO2 incubator at 37° C. and the hepatocytes were allowed to acclimate overnight. The Hepatocyte Maintenance Medium was replaced before treatment with drug or no-drug control, and the hepatocytes were treated with 0 μM (no-drug control), 10 μM, 20 μM, or 40 μM SK1-I or 0 μM, 2.5 μM, 5 μM, or 10 μM ozanimod for 24 hours under incubation. The cells were then harvested and analyzed using the GFP Certified® Apoptosis/Necrosis detection kit. The results are shown in FIGS. 19A-D for SK1-I and FIGS. 20A-D for ozanimod as follows.

[3] = system: human hepatocellular carcinoma cell lines Hep G2, Huh 7, and PLC-PRF5; assay: MTT cell viability assay (48 hours); format: cell-based; settings: Hep G2, Huh 7, PLC-PRF5
Procedure: The following MTT assay protocol was followed. • Prepared stock solutions: 50 mM ozanimod, 50 mM ABC294640, 10 mM SK1-I in DMSO. • Plated 20000 cells in 160 μl medium per well in 96-well plates for each cell line and incubated at 37° C. overnight. • Prepared compound serial dilutions: for ozanimod and ABC294640: dilute stock 50 mM 1:50 in medium to 1000 μM; for SK1-I, dilute stock 10 mM 1:50 in medium to […], them make serial 1:1.8 fold serial dilution to the titration. For negative control, diluted DMSO 1:50 to medium. • Added 40 μl negative control and serially titrated compounds to 160 μl of cells for each cell line. Performed in triplicate for each cell line. • Incubated at 37° C. for 72 hours. • Performed assay using Vybrant MTT Cell Proliferation Assay kit (V-13154) (Molecular Probes) from Thermo Fisher Scientific (Waltham, Mass. USA).
48-hour treatment MTT assays were also performed as follows.

Structure (SMILES) | induction of apoptosis in Huh7 cells (Huh7 cells) | induction of apoptosis in PLC-PRF5 cells (PLC-PRF5 cells) | induction of apoptosis in Hep 3B cells (Hep 3B cells) | induction of apoptosis in Hep G2 cells (Hep G2 cells) | induction of apoptosis in Jurkat cells [1] | induction of apoptosis of primary human hepatocytes [2] | killing of hepatocellular carcinoma cells (MTT), comparison with PF-543 [3]
O=C(NCc1ccncc1)C12CC3C[C@H](C1)CC(c1ccc(Cl)cc1)(C3)C2 [ABC294640, (7S)-3-(4-chlorophenyl)-N-(pyridin-4-ylmethyl)adamantane-1-carboxamide] | failed to induce apoptosis | did not substantially induce apoptosis | did not substantially induce apoptosis | failed to induce apoptosis | – | – | –
CC(C)Oc1ccc(-c2nc(-c3cccc4c3CC[C@@H]4NCCO)no2)cc1C#N [Ozanimod, 5-[3-[(1S)-1-(2-hydroxyethylamino)-2,3-dihydro-1H-inden-4-yl]-1,2,4-oxadiazol-5-yl]-2-propan-2-yloxybenzonitrile] | strongly induced apoptosis | strongly induced apoptosis | strongly induced apoptosis | strongly induced apoptosis | strongly induced apoptosis | did not induce apoptosis | –
CCCCCc1ccc(/C=C/[C@H](O)[C@@H](CO)NC)cc1 [SK1-I, (E,2R,3S)-2-(methylamino)-5-(4-pentylphenyl)pent-4-ene-1,3-diol] | strongly induced apoptosis | strongly induced apoptosis | strongly induced apoptosis | strongly induced apoptosis | strongly induced apoptosis | did not induce apoptosis | more effective at killing hepatocellular carcinoma cells than PF-543
